Values joined by “and” are separate entries in the source; they are usually repeats but may differ in a detail not shown here. Equal entries are not always repeated.
How the values were obtained:
[1] = test system: Mouse colon cancer CT26 cells; assay: Induction of immunogenic cell death targets by Crizotinib and IN10018 in CT26 cells (Example 7); type: cell-based; details: CT26, 48 hours; IN10018 5 μM, Crizotinib 3 μM
Protocol: CT26 cells were cultured in monolayer in vitro, and the culture conditions were: RPMI-1640 medium with 10% fetal bovine serum, 37° C. and 5% CO2. Trypsin was used for routine digestion and passage treatment two or three times a week. When the cells were in exponential growth period and the adherent confluence reached 80%-90%, the cells were collected and plated.
CT26 cells were digested with trypsin, then collected and counted. According to the counting results, the cells were diluted with RPMI-1640+10% FBS, and the dilution concentration was 50,000 cells per ml. Then, the cells were plated on 24-well culture plates, and 1 ml of cell suspension (50,000 cells) was laid in each well. After plating, the cells were cultured in 37° C. and 5% CO2 incubator. […]
After the cells were washed twice with flow buffer (DPBS+2% FBS), the cells in each group were divided into two parts on average, one of which was added with 0.5 μl of AF647 anti-Calreticulin antibody in each well, then mixed well, and incubated in the dark for 20 minutes at 4° C. […] The cells were cultured at room temperature in the dark for 15 minutes, and then analyzed by flow cytometry.
Data analysis: After the assay, the cell positive rate was analyzed by Flowjo(V10) software.

Mouse lung cancer KPL = assay: Proliferation of KPL cells, CCK8, MRTX1133 with or without IN10018 (Example 5); type: cell-based; details: 72 hours, MRTX1133 alone
Protocol: Mouse lung cancer KPL (Insitute of Biochemistry and Cell Biology) were cultured with RPMI-1640 (Shanghai Basalmedia, classification number: L210KJ, batch number: F210916)+10% FBS (Gibco, classification number: 10099-141c, batch number: 2158737cp) and passaged twice. When the cells were in good condition, the culture solution was placed in a 96-well plate with 3000 cells/well. After the cells were spread for 24 hours, a culture medium containing MRTX1133 (SuperLan Chemical Co., Ltd., classification number: P2621928-55-8, batch number: 131005) was added. 10 drug action concentrations were set, wherein the first concentration was 30 μM, which was serially diluted 5 times, and the last concentration was a control with a drug concentration of 0. Each drug concentration was set in triplicate. At the same time, another group of cells was established with the same drug concentration as the above method. The difference was that 10 μM IN10018 was added to each well. The drugs were mixed and the mixture was cultured in a 5% CO2 incubator at 37° C. for 72 hours.
After 72 hours of drug action, the cells were observed under a microscope, and 10 μl of CCK8 detection reagent (Cellorlab, classification number: CX001M, batch number: 2571100) was added to each well. […] Then the plate was read with a microplate reader OD450 ([…]).

[2] = Weight change, survival and clinical status in the CT26 allograft model (Example 9); type: in vivo
Protocol: The health status and death of animals was monitored every day. Routine examination included observing the effects of tumor growth and drug treatment on the daily behavior of animals, such as behavioral activities, food and water intake (visual observation only), body weight change, appearance signs or other abnormal conditions. Based on the number of animals in each group, the death number and side effects of animals in the group were recorded.
The assay was carried out according to the administration scheme. During the assay, animal activities such as eating and drinking were observed daily, and animal weight was recorded 2˜3 times a week. […] The body weight of the three-drug combined group of MRTX1133+IN10018+TIGIT (5+25+3 mg/kg) group changed from 19.5 g on the day of group administration (Day 0) to 21.2 g on the 16th day, and the change rate of body weight was […].

[3] = Body weight / tolerability of KPL tumor-bearing mice (Example 12); type: in vivo; details: KPL tumor-bearing C57BL/6 mice
Protocol: All the procedures related to animal handling, care and the treatment in the study were conducted according to guidelines approved by the Institutional Animal Care and Use Committee (IACUC) following the guidance of the Association for Assessment and Accreditation of Laboratory Animal Care (AAALAC). At the time of routine monitoring, the animals were daily checked for any effects of tumor growth and treatments on normal behavior such as mobility, food and water consumption (by looking only), body weight gain/loss (body weights were measured every two days or twice weekly), eye/hair matting and any other abnormal effects as stated in the protocol. Death and observed clinical signs were recorded on the basis of the numbers of animals within each subset.
The body weight of KPL tumor-bearing mice was monitored regularly as an indirect index of toxicity.

Compound	cell state under a microscope (cell death; cell viability) [1]	IC50 (Mouse lung cancer KPL)	Weight on Day 0 ([2]; Day 0, at grouping, mean ± SD)	Weight change rate (%) ([2]; Day 16 vs Day 0)	Weight on Day 14/16 ([2]; administration groups: 16th day after group administration, mean ± SD)	Animal survival ([2]; number of animals alive on day 0/number alive on day 16)	tolerability in KPL model [3]
COc1cc(C(=O)NC2CCN(C)CC2)c(F)cc1Nc1ncc(C(F)(F)F)c(Oc2cccc3c2C(=O)N(C)C3)n1 [IN10018]	better						
C#Cc1c(F)ccc2cc(O)cc(-c3ncc4c(N5CC6CCC(C5)N6)nc(OC[C@@]56CCCN5C[C@H](F)C6)nc4c3F)c12 [MRTX1133]		1.76 µM	19.4 g and 19.4 ± 0.8 g	15.1%	22.3 g and 22.3 ± 0.8 g	6/6	well-tolerated
